Experimental data reported in PMC12016430 (The Journal of Headache and Pain, 2025).

Legend:
Experiment in all cases: competitive gel-based ABPP
Assay type in all cases: cell-based
ABHD6 = target: T1, ABHD6 (Rattus norvegicus, UniProt Q5XI64)
T1 sequence (Q5XI64 1-337): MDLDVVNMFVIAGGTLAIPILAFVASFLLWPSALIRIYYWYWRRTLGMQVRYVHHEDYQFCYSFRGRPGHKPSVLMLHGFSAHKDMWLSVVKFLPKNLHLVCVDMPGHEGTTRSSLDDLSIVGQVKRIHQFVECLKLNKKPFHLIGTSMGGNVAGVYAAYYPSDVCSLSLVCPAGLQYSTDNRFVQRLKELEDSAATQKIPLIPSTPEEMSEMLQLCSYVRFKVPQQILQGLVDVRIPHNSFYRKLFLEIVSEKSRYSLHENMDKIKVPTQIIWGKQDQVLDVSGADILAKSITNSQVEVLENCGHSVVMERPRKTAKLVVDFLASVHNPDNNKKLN

FAAH = target: T2, FAAH (Rattus norvegicus, UniProt P97612)
T2 sequence (P97612 1-579): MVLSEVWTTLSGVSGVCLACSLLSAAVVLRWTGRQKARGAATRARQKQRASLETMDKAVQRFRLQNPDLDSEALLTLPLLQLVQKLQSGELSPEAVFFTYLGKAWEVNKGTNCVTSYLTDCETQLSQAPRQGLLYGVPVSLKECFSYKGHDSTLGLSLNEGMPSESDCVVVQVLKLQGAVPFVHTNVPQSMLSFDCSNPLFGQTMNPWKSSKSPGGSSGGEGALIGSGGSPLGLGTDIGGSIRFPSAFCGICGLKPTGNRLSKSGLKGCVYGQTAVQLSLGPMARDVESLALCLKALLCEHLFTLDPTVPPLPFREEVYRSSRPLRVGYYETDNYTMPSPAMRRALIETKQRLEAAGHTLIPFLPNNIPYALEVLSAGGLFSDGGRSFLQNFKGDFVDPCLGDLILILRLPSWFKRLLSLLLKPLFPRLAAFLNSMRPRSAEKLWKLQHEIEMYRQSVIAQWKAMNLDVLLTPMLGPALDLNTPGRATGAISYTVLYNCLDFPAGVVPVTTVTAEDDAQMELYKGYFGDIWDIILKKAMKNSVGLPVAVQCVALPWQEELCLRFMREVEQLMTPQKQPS

MAGL = target: T3, MAGL (Rattus norvegicus, UniProt Q8R431)
T3 sequence (Q8R431 1-303): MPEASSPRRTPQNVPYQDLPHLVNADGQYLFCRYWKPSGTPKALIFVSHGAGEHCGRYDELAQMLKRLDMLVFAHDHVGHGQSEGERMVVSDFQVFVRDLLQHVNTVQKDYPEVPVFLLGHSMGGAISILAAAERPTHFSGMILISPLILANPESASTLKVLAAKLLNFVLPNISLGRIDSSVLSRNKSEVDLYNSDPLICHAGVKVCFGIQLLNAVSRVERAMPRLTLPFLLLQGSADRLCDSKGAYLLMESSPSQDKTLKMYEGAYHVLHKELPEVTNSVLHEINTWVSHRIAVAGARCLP

`O=C(N1CCN(C(c2ccccc2)c2ccccc2)CC1)n1cncn1` [AKU-005] was tested, and the “% inhibition at 100 nM” value (ABHD6) was 30, the “% inhibition at 100 nM” value (FAAH) was 79 and the “% inhibition at 100 nM” value (MAGL) was 79.
